Laboratory results taken from PubChem BioAssay AID248 (DTP/NCI, 2004).
Inconclusive results and toxic doses are left out. Cut-off read from the data, not from the text of the source: active = T/C of 150% or more; inactive = T/C below 125%.

Test system: L1210 leukemia ip in BDF1 mice, survival T/C
Assay: NCI In Vivo Anticancer Drug Screen. Data for tumor model L1210 Leukemia (intraperitoneal) in B6D2F1 (BDF1) mice
Conditions: endpoint: mean survival time, higher = longer survival
Outline: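 Antitumor effect is assessed in tumor-bearing animals. Survival in the compound arm is compared with a vehicle-dosed control arm and expressed as their quotient.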

[1] = dose: 100.0 mg/kg/injection, schedule: Q01DX009 (ip), vehicle: saline with Tween-80
[2] = dose: 100.0 mg/kg/injection, schedule: Q04DX003 (ip), vehicle: saline with Tween-80
[3] = dose: 200.0 mg/kg/injection, schedule: Q01DX009 (ip), vehicle: saline with Tween-80
[4] = dose: 200.0 mg/kg/injection, schedule: Q04DX003 (ip), vehicle: saline with Tween-80
[5] = dose: 400.0 mg/kg/injection, schedule: Q01DX009 (ip), vehicle: saline with Tween-80
[6] = dose: 400.0 mg/kg/injection, schedule: Q04DX003 (ip), vehicle: saline with Tween-80
[7] = dose: 75.0 mg/kg/injection, schedule: Q01DX001 (ip), vehicle: saline
[8] = dose: 100.0 mg/kg/injection, schedule: Q01DX009 (ip), vehicle: Klucel (hydroxypropylcellulose) (HPC)
[9] = dose: 100.0 mg/kg/injection, schedule: Q04DX003 (ip), vehicle: Klucel (hydroxypropylcellulose) (HPC)
[10] = dose: 200.0 mg/kg/injection, schedule: Q01DX009 (ip), vehicle: Klucel (hydroxypropylcellulose) (HPC)
[11] = dose: 200.0 mg/kg/injection, schedule: Q04DX003 (ip), vehicle: Klucel (hydroxypropylcellulose) (HPC)
[12] = dose: 400.0 mg/kg/injection, schedule: Q01DX009 (ip), vehicle: Klucel (hydroxypropylcellulose) (HPC)
[13] = dose: 100.0 mg/kg/injection, schedule: Q04DX003 (ip), vehicle: saline
[14] = dose: 200.0 mg/kg/injection, schedule: Q04DX003 (ip), vehicle: saline
[15] = dose: 400.0 mg/kg/injection, schedule: Q04DX003 (ip), vehicle: saline

Measured: T/C

CCC(=O)Nc1cc(C(F)(F)F)ccc1Cl
inactive: [1] 96 % of control | [2] 103 % of control | [3] 96 % of control | [4] 98 % of control | [5] 98 % of control | [6] 98 % of control

CCN(C(=O)N(CCCl)N=O)C1CCCCC1
inactive: [7] 97 % of control

COC1OC2COc3ccccc3OC2C(NC(C)=O)C1O (stereo unspecified)
inactive: dose: 100.0 mg/kg/injection, schedule: Q01DX009 (ip), vehicle: other 96 % of control | dose: 200.0 mg/kg/injection, schedule: Q01DX009 (ip), vehicle: other 89 % of control | dose: 400.0 mg/kg/injection, schedule: Q01DX009 (ip), vehicle: other 94 % of control

COc1ccc(C(=O)Nc2ccccc2)cc1N
inactive: dose: 50.0 mg/kg/injection, schedule: Q01DX009 (ip), vehicle: carboxymethylcellulose (CMC) 96 % of control | dose: 100.0 mg/kg/injection, schedule: Q01DX009 (ip), vehicle: carboxymethylcellulose (CMC) 103 % of control | dose: 200.0 mg/kg/injection, schedule: Q01DX009 (ip), vehicle: carboxymethylcellulose (CMC) 94 % of control | dose: 400.0 mg/kg/injection, schedule: Q01DX001 (ip), vehicle: carboxymethylcellulose (CMC) 120 % of control | dose: 400.0 mg/kg/injection, schedule: Q01DX009 (ip), vehicle: carboxymethylcellulose (CMC) 100 % of control | dose: 600.0 mg/kg/injection, schedule: Q01DX001 (ip), vehicle: carboxymethylcellulose (CMC) 114 % of control | dose: 800.0 mg/kg/injection, schedule: Q01DX001 (ip), vehicle: carboxymethylcellulose (CMC) 118 % of control | dose: 1000.0 mg/kg/injection, schedule: Q01DX001 (ip), vehicle: carboxymethylcellulose (CMC) 114 % of control

CCCCCCCNc1ccc(C(=O)O)cc1
inactive: dose: 37.5 mg/kg/injection, schedule: Q01DX009 (ip), vehicle: saline 105 % of control | [7] 93 % of control | dose: 75.0 mg/kg/injection, schedule: Q01DX009 (ip), vehicle: saline 94 % of control | dose: 75.0 mg/kg/injection, schedule: Q04DX003 (ip), vehicle: saline 105 % of control | dose: 150.0 mg/kg/injection, schedule: Q01DX001 (ip), vehicle: saline 104 % of control | dose: 150.0 mg/kg/injection, schedule: Q01DX009 (ip), vehicle: saline 98 % of control | dose: 150.0 mg/kg/injection, schedule: Q04DX003 (ip), vehicle: saline 109 % of control | dose: 300.0 mg/kg/injection, schedule: Q01DX001 (ip), vehicle: saline 102 % of control | dose: 300.0 mg/kg/injection, schedule: Q04DX003 (ip), vehicle: saline 102 % of control

Clc1ccc(COC(Cn2ccnc2)c2ccc(Cl)cc2Cl)cc1 (stereo unspecified)
inactive: dose: 25.0 mg/kg/injection, schedule: Q04DX002 (ip), vehicle: DMSO 93 % of control | dose: 50.0 mg/kg/injection, schedule: Q04DX002 (ip), vehicle: DMSO 93 % of control | dose: 100.0 mg/kg/injection, schedule: Q04DX002 (ip), vehicle: DMSO 97 % of control

C1CCCC2(CCC1)OCCO2
inactive: [1] 93 % of control | [2] 113 % of control | [3] 102 % of control | [4] 108 % of control | [5] 101 % of control | [6] 94 % of control

CCC(C(=O)O)(c1ccccc1)c1ccccc1
inactive: dose: 100.0 mg/kg/injection, schedule: Q04DX002 (ip), vehicle: gum acacia 93 % of control | dose: 200.0 mg/kg/injection, schedule: Q04DX002 (ip), vehicle: gum acacia 111 % of control | dose: 400.0 mg/kg/injection, schedule: Q04DX002 (ip), vehicle: gum acacia 86 % of control

CC(C)Cc1ccc(C(=O)O)cc1
inactive: [8] 94 % of control | [9] 97 % of control | [10] 94 % of control | [11] 108 % of control | [12] 94 % of control | dose: 400.0 mg/kg/injection, schedule: Q04DX003 (ip), vehicle: Klucel (hydroxypropylcellulose) (HPC) 102 % of control

CC1=CC(=N/S(=O)(=O)c2ccccc2)/C2CC(C)=C(C)CC2/C1=N\S(=O)(=O)c1ccccc1 (stereo unspecified)
inactive: [8] 95 % of control | [9] 95 % of control | [10] 104 % of control | [11] 92 % of control | [12] 103 % of control

CCOC(=O)CNC(=O)CNC(=O)CNC(=O)CCCCSc1ncnc2nc[nH]c12
inactive: dose: 25.0 mg/kg/injection, schedule: Q01DX009 (ip), vehicle: saline 102 % of control | dose: 25.0 mg/kg/injection, schedule: Q01DX009 (oral), vehicle: saline 106 % of control | dose: 50.0 mg/kg/injection, schedule: Q01DX009 (ip), vehicle: saline 110 % of control | dose: 50.0 mg/kg/injection, schedule: Q01DX009 (oral), vehicle: saline 90 % of control | dose: 100.0 mg/kg/injection, schedule: Q01DX009 (ip), vehicle: saline 96 % of control | dose: 100.0 mg/kg/injection, schedule: Q01DX009 (oral), vehicle: saline 98 % of control | dose: 200.0 mg/kg/injection, schedule: Q01DX009 (ip), vehicle: saline 104 % of control | dose: 200.0 mg/kg/injection, schedule: Q01DX009 (oral), vehicle: saline 95 % of control | dose: 400.0 mg/kg/injection, schedule: Q01DX009 (ip), vehicle: saline 98 % of control | dose: 400.0 mg/kg/injection, schedule: Q01DX009 (oral), vehicle: saline 114 % of control | dose: 800.0 mg/kg/injection, schedule: Q01DX009 (ip), vehicle: saline 96 % of control | dose: 800.0 mg/kg/injection, schedule: Q01DX009 (oral), vehicle: saline 101 % of control

CC(=O)[C@@]1(O)CC[C@H]2[C@@H]3C[C@H](C)C4=CC(=O)CC[C@]4(C)[C@H]3[C@@H](O)C[C@@]21C
inactive: dose: 12.5 mg/kg/injection, schedule: Q04DX002 (ip), vehicle: Klucel (hydroxypropylcellulose) (HPC) 102 % of control | dose: 25.0 mg/kg/injection, schedule: Q04DX002 (ip), vehicle: Klucel (hydroxypropylcellulose) (HPC) 105 % of control | dose: 50.0 mg/kg/injection, schedule: Q04DX002 (ip), vehicle: Klucel (hydroxypropylcellulose) (HPC) 112 % of control | dose: 100.0 mg/kg/injection, schedule: Q01DX001 (ip), vehicle: saline 104 % of control | dose: 100.0 mg/kg/injection, schedule: Q01DX009 (ip), vehicle: acetone 97 % of control | [13] 104 % of control | dose: 200.0 mg/kg/injection, schedule: Q01DX001 (ip), vehicle: saline 100 % of control | dose: 200.0 mg/kg/injection, schedule: Q01DX009 (ip), vehicle: acetone 92 % of control | [14] 102 % of control | dose: 400.0 mg/kg/injection, schedule: Q01DX001 (ip), vehicle: saline 91 % of control | dose: 400.0 mg/kg/injection, schedule: Q01DX009 (ip), vehicle: acetone 97 % of control | [15] 95 % of control

CN(C)CCN1C(=O)NC(C)(C)C1=O
inactive: dose: 50.0 mg/kg/injection, schedule: Q04DX003 (ip), vehicle: saline 96 % of control | [13] 101 % of control | [14] 90 % of control | [15] 93 % of control

O=NN(CCCl)C(=O)Nc1cccc(C(=O)O)c1
inactive: dose: 0.62 mg/kg/injection, schedule: Q01DX001 (ip), vehicle: carboxymethylcellulose (CMC) 117 % of control | dose: 5.0 mg/kg/injection, schedule: Q01DX001 (ip), vehicle: carboxymethylcellulose (CMC) 123 % of control | dose: 12.0 mg/kg/injection, schedule: Q01DX001 (ip), vehicle: saline 121 % of control
